From ChEMBL document CHEMBL5725713, “5-aminopyrazole-4-carboxamide inhibitors of CDPK1 from T. gondii and C. parvum” (2016)

Target: T1, Calmodulin-domain protein kinase 1 (Toxoplasma gondii, UniProt Q9BJF5)
T1 sequence (Q9BJF5 whole entry): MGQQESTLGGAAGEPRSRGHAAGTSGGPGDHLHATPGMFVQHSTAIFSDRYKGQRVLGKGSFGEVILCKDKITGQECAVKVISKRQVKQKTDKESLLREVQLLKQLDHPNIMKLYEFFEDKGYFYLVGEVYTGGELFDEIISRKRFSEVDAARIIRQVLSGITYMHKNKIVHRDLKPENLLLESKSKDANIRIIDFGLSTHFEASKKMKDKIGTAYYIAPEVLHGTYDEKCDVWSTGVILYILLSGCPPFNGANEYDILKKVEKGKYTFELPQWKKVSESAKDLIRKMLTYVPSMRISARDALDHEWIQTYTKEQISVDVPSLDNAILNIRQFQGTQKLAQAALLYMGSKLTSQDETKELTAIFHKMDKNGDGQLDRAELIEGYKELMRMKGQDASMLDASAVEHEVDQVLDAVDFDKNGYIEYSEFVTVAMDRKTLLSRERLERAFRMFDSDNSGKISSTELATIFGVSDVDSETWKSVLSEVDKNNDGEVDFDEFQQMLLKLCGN
Assay: Luminescent Kinase Assay: Inhibition of TgCDPK1 and CpCDPK1 was determined using a luminescent kinase assay which measures ATP depletion in the presence of the Syntide 2 peptide substrate (KinaseGlo). For description of the methods and assays, see WO 2011/094628, incorporated by reference herein.

Compound: CC(C)(C)n1cc(C(N)=O)c(-c2ccc3c(N)n[nH]c3c2)n1
- IC50: 40 nM
